Test results published in US20050003455A1, “Remedies for heart diseases” (priority 2001, published 2005).

What was measured:
[1] = test system: primary cultures of rat myocardial cells; test: Staurosporine-induced decrease in cell viability (WST-8) in primary cultures of rat myocardial cells; format: cell-based; conditions: for cytotoxicity induced in cultured myocardial cells: 1 μM staurosporine, HCO3−-free culture medium versus ordinary culture medium
Description: The myocardial cells used in the experiments were those of primary cultures from rats. In order to prepare primary cultures of myocardial cells, heart was excised from SD rats at day 20 of pregnancy (purchased from Japan SLC Co., Ltd.) and enzyme-digested with collagenase (Worthington Biochemical Corp.) and trypsin (GIBCO BRL, Gaithersberg, Md.) to isolate myocardial cells and make a cell suspension of them. As an ordinary culture medium, D-MEM supplemented with fetal bovine serum (FBS) to give a concentration of 10% (GIBCO BRL, Gaithersberg, Md.) was employed. For checking to see if Cl^−/HCO3^− anion exchangers (AEs) would be involved in apoptosis in cardiovascular cells and in protection from it, Leibovitz's L-15 Medium supplemented with FBS to give a concentration of 10% (GIBCO BRL, Gaithersberg, Md.) was employed as an HCO3^−-free culture medium and the result from it was compared with the result from the ordinary culture medium. The HCO3^−-free culture medium was employed in order to suppress the function of the Cl^−/HCO3^− anion exchangers by depleting HCO3^−. The Cl^−/HCO3^− anion exchangers are widely distributed in erythrocytes and other tissues, AE1 being expressed primarily in erythrocytes and AE3 in myocardial cells and neurons. By coupling the exclusion of intracellular Cl^− to the outside of cells and intake of extracellular HCO3^− into the cells, the exchangers function as an intracellular Cl^− and pH regulating system and they also work as a cell volume regulating system during regulatory volume increase (RVI). In a pathological context, it is speculated that the exchangers participate in the process of myocardial cells' acidification which accompanies ischemia.
A suspension of myocardial cells at a density of 3-5×10^5 cells/mL was dispensed in 24-well multiwell plates (Falcon) in an amount of 0.5 mL per well, or in 96-well multiwell plates (Falcon) in an amount of 0.1 mL per well, or in 12-well multiwell plates (Falcon) in an mount of 1 mL per well. The plates were placed in a CO2 incubator and cultured in 5% CO2 at 37° C. for 2-3 days. The thus cultured cells were used in subsequent experiments.
A control group consisted of three culture media, a cell-free medium (blank), a cell-containing medium alone (D-MEM) and 0.3% DMSO [D-MEM supplemented with 0.3% DMSO (DOJINDO LABORATORIES, Kumamoto, Japan)]. A test group consisted of three culture media containing a drug or drugs under specified conditions, i.e., a solution of 1 μM staurosporine (Sigma) dissolved in 0.3% DMSO, a mixed solution of the 1 μM staurosporine and 125-1000 μM SITS (SIGMA CHEMICAL Co., St. Louis, Mo., USA), and a mixed solution of the 1 μM staurosporine and 62.5-250 μM DIDS (SIGMA CHEMICAL Co., St. Louis, Mo., USA); the culture media of the test group are hereunder referred to as “conditioned culture media”.
Specifically, after aspirating away a culture medium, a fresh medium of the control group or a conditioned culture medium of interest was added in 24-well multiwell plates in an amount of 0.5 mL/well. After adding the conditioned culture medium, the plates were placed in a CO2 incubator and cultured in 5% CO2 at 37° C. for 2-4 hours. When a conditioned culture medium based on the HCO3^−-free culture medium was added, the plates were placed in an atmospheric incubator and cultured at 37° C. […]

[2] = test system: caspase-3 activity of cultured rat myocardial cells; test: Staurosporine-induced increase in caspase-3 activity of cultured myocardial cells (Caspase-3 Assay Kit, Fluorimetric; AMC formation); format: cell-based; conditions: 1 μM staurosporine + 250 μM DIDS, 12-well multiwell plates, FIG. 5
Protocol: The caspase-3 activity of the thus prepared cells was measured with Caspase-3 Assay Kit, Fluorimetric (SIGMA CHEMICAL, Co., St. Louis, Mo., USA).
More specifically, 12-well multiwell plates were cultured for 2 hours after adding a conditioned culture solution, which was then removed and further cultivation was effected for an appropriate period, mostly for 2 hours; thereafter, cell lysates were prepared using Caspase-3 Assay Kit, Fluorimetric; in the subsequent stage, the amount of formation of specific fluorochrome 7-amino-4-methylcoumarin (AMC) was measured by means of a fluorometric microplate reader (SPECTRA Fluor, Wako Pure Chemical Industries, Ltd., Osaka, Japan) according to the procedure of measurement with the Kit; and the amount of AMC formation was used as an index of caspase-3 activity. […]

O=S(=O)(O)c1cc(N=C=S)ccc1C=Cc1ccc(N=C=S)cc1S(=O)(=O)O [DIDS, 4,4′-diisothiocyanostilbene-2,2′-disulfonic acid]
suppression of the staurosporine-induced drop in cell viability ([1]; 1 μM staurosporine + 62.5, 125 or 250 μM DIDS, 24-well multiwell plates, FIG. 4): suppresses the drop in cell viability in a dose-dependent manner
suppression of the staurosporine-induced decrease in cell viability ([1]; HCO3−-free culture medium, 1 μM staurosporine + 62.5, 125 or 250 μM DIDS, 24-well multiwell plates, FIG. 6): suppressed the decrease in cell viability in a dose-dependent manner
apoptosis suppressing effect on myocardial cells ([1]; overall conclusion from Examples 1-6): exhibit the apoptosis suppressing effect on myocardial cells
suppression of the staurosporine-induced increase in caspase-3 activity [2]: suppresses the staurosporine-induced increase in caspase-3 activity

CN[C@@H]1C[C@H]2O[C@@](C)([C@@H]1OC)n1c3ccccc3c3c4c(c5c6ccccc6n2c5c31)C(=O)NC4 [staurosporine]
cytotoxicity induced in cultured myocardial cells ([1]; 24-well multiwell plates, FIG. 6): comparable levels of cytotoxicity was induced by staurosporine
cytotoxicity induced in cultured myocardial cells ([1]; 96-well multiwell plates, FIG. 7): comparable levels of cytotoxicity was induced on the 96-well multiwell plates by staurosporine
